Reference: patent US12384789B2, “Compounds for treating Huntington's disease” (PTC Therapeutics, Inc., priority 2017, dated 2025)

System: Endogenous Huntingtin Protein
Test: Endogenous Huntingtin Protein Assay (Meso Scale Discovery ELISA-based electrochemiluminescence)
Assay type: cell-based
Details: MSD electrochemiluminescence, Table 1
Procedure, shortened: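 MSD electrochemiluminescence sandwich ELISA: MW1 (expanded polyQ) or MAB2166 capture antibody at 1 μg/mL, samples incubated overnight at 4° C. Detection with rabbit monoclonal #5656S then SULFO-TAG anti-rabbit antibody, each 0.25 μg/mL for 1 h at room temperature.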

## CCN1CCC(c2ccc3nc(-c4ccc5nn(C)cc5c4)ccc3c2)CC1 [Compound 2, 6-(1-ethylpiperidin-4-yl)-2-(2-methyl-2H-indazol-5-yl)quinoline]
  IC50: 1000 to 3000 nM

## CCN1CCC(c2cc3c(F)cc(-c4cc(C)c5nc(C)sc5n4)cc3nn2)CC1 [Compound 135, 7-(2,7-dimethyl[1,3]thiazolo[5,4-b]pyridin-5-yl)-3-(1-ethylpiperidin-4-yl)-5-fluorocinnoline]
  IC50: ≤ 100 nM

## Cc1cc(-c2cc(F)c3nc(C4CCNCC4)nnc3c2)nc2cn(C)nc12 [Compound 66, 7-(2,7-dimethyl-2H-pyrazolo[4,3-b]pyridin-5-yl)-5-fluoro-3-(piperidin-4-yl)-1,2,4-benzotriazine]
  IC50: ≤ 100 nM

## Cn1cc2cc(-c3cc4c(F)cc(C5CCNCC5)cc4nn3)cc(F)c2n1 [Compound 151, 5-fluoro-3-(7-fluoro-2-methyl-2H-indazol-5-yl)-7-(piperidin-4-yl)cinnoline]
  IC50: ≤ 100 nM

## Cn1cc2cc(-c3cc(F)c4cc(C5CCNCC5)nnc4c3)ccc2n1 [Compound 95, 5-fluoro-7-(2-methyl-2H-indazol-5-yl)-3-(piperidin-4-yl)cinnoline]
  IC50: ≤ 100 nM

## Cc1cn2cc(-c3ccc4nc(C5CCNCC5)ccc4c3)nc(C)c2n1 [Compound 18, 6-(2,8-dimethylimidazo[1,2-a]pyrazin-6-yl)-2-(piperidin-4-yl)quinoline]
  IC50: 100 to 500 nM

## CCc1cc(-c2cc(F)c3cc(C4CCN(CCO)CC4)nnc3c2)nn2cc(C)nc12 [Compound 123, 2-{4-[7-(8-ethyl-2-methylimidazo[1,2-b]pyridazin-6-yl)-5-fluorocinnolin-3-yl]piperidin-1-yl}ethan-1-ol]
  IC50: ≤ 100 nM

## CCN1CC=C(c2cc(F)c3cc(-c4cc(F)c5nn(C)cc5c4)nnc3c2)CC1 [Compound 153, 7-(1-ethyl-1,2,3,6-tetrahydropyridin-4-yl)-5-fluoro-3-(7-fluoro-2-methyl-2H-indazol-5-yl)cinnoline]
  IC50: ≤ 100 nM

## Cc1nc(-c2cc(F)c3nc(C4CCNCC4)nnc3c2)cc2cn(C)nc12 [Compound 67, 7-(2,7-dimethyl-2H-pyrazolo[3,4-c]pyridin-5-yl)-5-fluoro-3-(piperidin-4-yl)-1,2,4-benzotriazine]
  IC50: 100 to 500 nM

## Cc1cn2nc(-c3cc(F)c4cc(C5CCNCC5)nnc4c3)cc(OCCCN(C)C)c2n1 [Compound 139, 3-({6-[5-fluoro-3-(piperidin-4-yl)cinnolin-7-yl]-2-methylimidazo[1,2-b]pyridazin-8-yl}oxy)-N,N-dimethylpropan-1-amine]
  IC50: ≤ 100 nM

## Cn1cc2cc(-c3cc4c(F)cc(C5=CCNCC5)cc4nn3)cc(C#N)c2n1 [Compound 175, 5-[5-fluoro-7-(1,2,3,6-tetrahydropyridin-4-yl)cinnolin-3-yl]-2-methyl-2H-indazole-7-carbonitrile]
  IC50: ≤ 100 nM

## Cc1cn2nc(-c3cc(F)c4cc(C5CCCN(CCO)CC5)nnc4c3)cc(C)c2n1 (centres unmarked) [Compound 190, 2-{4-[7-(2,8-dimethylimidazo[1,2-b]pyridazin-6-yl)-5-fluorocinnolin-3-yl]azepan-1-yl}ethan-1-ol]
  IC50: ≤ 100 nM

## Cn1cc2c(F)c(-c3cc(F)c4cc(C5CCNCC5)nnc4c3)ccc2n1 [Compound 109, 5-fluoro-7-(4-fluoro-2-methyl-2H-indazol-5-yl)-3-(piperidin-4-yl)cinnoline]
  IC50: 500 to 1000 nM

## Cc1cc(-c2cc(F)c3cc(C4CCNCC4)ncc3c2)cc2cn(C)nc12 [Compound 71, 7-(2,7-dimethyl-2H-indazol-5-yl)-5-fluoro-3-(piperidin-4-yl)isoquinoline]
  IC50: ≤ 100 nM

## Cc1cn2nc(-c3cc(F)c4cc(C5CCN(C)CC5)nnc4c3)cc(C)c2n1 [Compound 79, 7-(2,8-dimethylimidazo[1,2-b]pyridazin-6-yl)-5-fluoro-3-(1-methylpiperidin-4-yl)cinnoline]
  IC50: ≤ 100 nM

## Cc1cc(-c2cc(F)c3cc(C4CCNCC4)nnc3c2)nc2cn(C)nc12 [Compound 162, 7-(2,7-dimethyl-2H-pyrazolo[4,3-b]pyridin-5-yl)-5-fluoro-3-(piperidin-4-yl)cinnoline]
  IC50: ≤ 100 nM

## Cc1cn2nc(-c3cc(F)c4cc(C5=CCNCC5)nnc4c3)cc(C)c2n1 [Compound 225, 7-(2,8-dimethylimidazo[1,2-b]pyridazin-6-yl)-5-fluoro-3-(1,2,3,6-tetrahydropyridin-4-yl)cinnoline]
  IC50: ≤ 100 nM

## Cc1cn2nc(-c3cc(F)c4cc(N5CC6(CCCNC6)C5)nnc4c3)cc(C)c2n1 [Compound 218, 3-(2,6-diazaspiro[3.5]nonan-2-yl)-7-(2,8-dimethylimidazo[1,2-b]pyridazin-6-yl)-5-fluorocinnoline]
  IC50: ≤ 100 nM

## Cc1cn2nc(-c3cc(F)c4cc(N5CCC(C)(N(C)C)CC5)nnc4c3)cc(C)c2n1 [Compound 224, 1-[7-(2,8-dimethylimidazo[1,2-b]pyridazin-6-yl)-5-fluorocinnolin-3-yl]-N,N,4-trimethylpiperidin-4-amine]
  IC50: ≤ 100 nM

## Cn1cc2cc(-c3ccc4cc(N5CCNCC5)ccc4n3)ccc2n1 [Compound 7, 2-(2-methyl-2H-indazol-5-yl)-6-(piperazin-1-yl)quinoline]
  IC50: 1000 to 3000 nM

## Cc1cn2nc(-c3cc(F)c4cc(N5CC6(CCNC6)C5)nnc4c3)cc(C)c2n1 [Compound 217, 3-(2,6-diazaspiro[3.4]octan-2-yl)-7-(2,8-dimethylimidazo[1,2-b]pyridazin-6-yl)-5-fluorocinnoline]
  IC50: ≤ 100 nM

## Cc1cn2nc(-c3cc(F)c4cc(C5CCNCC5)nnc4c3)cc(Oc3ccccc3)c2n1 [Compound 195, 5-fluoro-7-(2-methyl-8-phenoxyimidazo[1,2-b]pyridazin-6-yl)-3-(piperidin-4-yl)cinnoline]
  IC50: ≤ 100 nM

## Cc1cn2nc(-c3cc(F)c4cc(C5CCN(C(C)C)CC5)nnc4c3)cc(C)c2n1 [Compound 78, 7-(2,8-dimethylimidazo[1,2-b]pyridazin-6-yl)-5-fluoro-3-[1-(propan-2-yl)piperidin-4-yl]cinnoline]
  IC50: ≤ 100 nM

## Cc1cc2cc(-c3cc(F)c4cc(C5CCNCC5)nnc4c3)oc2c(C)n1 [Compound 146, 7-(5,7-dimethylfuro[2,3-c]pyridin-2-yl)-5-fluoro-3-(piperidin-4-yl)cinnoline]
  IC50: ≤ 100 nM

## Cc1cn2nc(-c3cc(F)c4cc(C5CCNCC5)nnc4c3)cc(C)c2n1 [Compound 74, 7-(2,8-dimethylimidazo[1,2-b]pyridazin-6-yl)-5-fluoro-3-(piperidin-4-yl)cinnoline]
  IC50: ≤ 100 nM

## Cc1cn2nc(-c3cc(F)c4cc(N5C[C@@H]6[C@H](C5)[C@H]6N(C)C)nnc4c3)cc(C)c2n1 [Compound 223, (1R,5S,6s)-3-[7-(2,8-dimethylimidazo[1,2-b]pyridazin-6-yl)-5-fluorocinnolin-3-yl]-N,N-dimethyl-3-azabicyclo[3.1.0]hexan-6-amine]
  IC50: ≤ 100 nM

## Cc1cc2oc(-c3cc(F)c4cc(C5CCN(C)CC5)nnc4c3)nc2c(C)n1 [Compound 214, 7-(4,6-dimethyl[1,3]oxazolo[4,5-c]pyridin-2-yl)-5-fluoro-3-(1-methylpiperidin-4-yl)cinnoline]
  IC50: 100 to 500 nM

## Cc1cn2nc(-c3cc(F)c4cc(C5CCN(CC(F)F)CC5)nnc4c3)cc(C)c2n1 [Compound 98, 3-[1-(2,2-difluoroethyl)piperidin-4-yl]-7-(2,8-dimethylimidazo[1,2-b]pyridazin-6-yl)-5-fluorocinnoline]
  IC50: 100 to 500 nM

## Cn1cc2cc(-c3cc4c(F)cc(C5=CCNCC5)cc4nn3)cc(F)c2n1 [Compound 134, 5-fluoro-3-(7-fluoro-2-methyl-2H-indazol-5-yl)-7-(1,2,3,6-tetrahydropyridin-4-yl)cinnoline]
  IC50: ≤ 100 nM

## Cc1cn2nc(-c3cc(F)c4cc(C5CCN(CCn6cnc7ccccc76)CC5)nnc4c3)cc(C)c2n1 [Compound 159, 3-{1-[2-(1H-benzimidazol-1-yl)ethyl]piperidin-4-yl}-7-(2,8-dimethylimidazo[1,2-b]pyridazin-6-yl)-5-fluorocinnoline]
  IC50: ≤ 100 nM

## CCN1CCC(c2cc3c(F)cc(-c4cc(C(C)C)c5nc(C)cn5n4)cc3nn2)CC1 [Compound 222, 3-(1-ethylpiperidin-4-yl)-5-fluoro-7-[2-methyl-8-(propan-2-yl)imidazo[1,2-b]pyridazin-6-yl]cinnoline]
  IC50: 100 to 500 nM

## Cc1cn2cc(-c3cc(F)c4cc(C5CCNCC5)nnc4c3)cnc2n1 [Compound 91, 5-fluoro-7-(2-methylimidazo[1,2-a]pyrimidin-6-yl)-3-(piperidin-4-yl)cinnoline]
  IC50: 1000 to 3000 nM

## COc1cc(-c2cc(F)c3nc(C4CCNCC4)ccc3c2)cc2cn(C)nc12 [Compound 49, 8-fluoro-6-(7-methoxy-2-methyl-2H-indazol-5-yl)-2-(piperidin-4-yl)quinoline]
  IC50: ≤ 100 nM

## Cc1cn2cc(-c3cc(F)c4nc(C5CCNCC5)nnc4c3)cc(C(F)(F)F)c2n1 [Compound 61, 5-fluoro-7-[2-methyl-8-(trifluoromethyl)imidazo[1,2-a]pyridin-6-yl]-3-(piperidin-4-yl)-1,2,4-benzotriazine]
  IC50: 500 to 1000 nM

## Cc1cn2cc(-c3cc(F)c4nc(C5CCNCC5)nnc4c3)cc(F)c2n1 [Compound 58, 5-fluoro-7-(8-fluoro-2-methylimidazo[1,2-a]pyridin-6-yl)-3-(piperidin-4-yl)-1,2,4-benzotriazine]
  IC50: ≤ 100 nM

## Cc1cn2nc(-c3cc(F)c4cc(C5CCN(CCN(C)C)CC5)nnc4c3)cc(C)c2n1 [Compound 127, 2-{4-[7-(2,8-dimethylimidazo[1,2-b]pyridazin-6-yl)-5-fluorocinnolin-3-yl]piperidin-1-yl}-N,N-dimethylethan-1-amine]
  IC50: ≤ 100 nM

## Cc1cn2nc(-c3cc(F)c4cc(C5=CC(C)(C)NC(C)(C)C5)nnc4c3)cc(C)c2n1 [Compound 208, 7-(2,8-dimethylimidazo[1,2-b]pyridazin-6-yl)-5-fluoro-3-(2,2,6,6-tetramethyl-1,2,3,6-tetrahydropyridin-4-yl)cinnoline]
  IC50: 100 to 500 nM

## Cc1nc2c(C)cc(-c3cc(F)c4nc(C5CCNCC5)nnc4c3)cc2[nH]1 [Compound 63, 7-(2,4-dimethyl-1H-benzimidazol-6-yl)-5-fluoro-3-(piperidin-4-yl)-1,2,4-benzotriazine]
  IC50: ≤ 100 nM
